According to US6177253A, “Screening methods for the identification of anti-HIV compounds employing a cyclosporine-specific monoclonal antibody that cross-reacts with HIV-1 p24” (priority 1998, dated 2001):

Key:
Assay type in all cases: binding, BALB/c mice
B11 1.4 = assay: ELISA inhibition by singly modified Cs-derivatives, McAb B11 1.4; conditions: group IV; D-Lys^8 -Cs-BSA coating
Description: (§1) A second ELISA Procedure used conjugates of D-Lys^8 -Cs-BSA and Thr^2 -Cs-BSA for coating (Queeniaux et al., 1987b). An indirect detection system consisting of rabbit anti-mouse Ig followed by alkaline phosphates-conjugated goat anti-rabbit IgG was performed as previously described (Queenlaux et al., 1987b).
(§2) The binding of the 22 McAbs to these two Cs-BSA conjugates was also found to correlate well with their fine specificity patterns, as characterized with a set of 28-36 Cs derivatives. Typical ELISA curves showing McAb binding either to D-Lys^8 -Cs-BSA (panel A) or to Thr^2 -Ca-BSA (panel B) and inhibited by Cs or Cs derivatives are shown in FIGS. 8A-8B, D-Lys^8 -Cs-BSA was subsequently used for coating in the inhibition experiments, except for those McAbs binding selectively to Thr^2 -Cs-BSA (see Table 4 and FIGS. 7A-7C). An example of the binding of 26 Cs derivatives by McAbs belonging to each of the five specificity groups mentioned above is reported in Table 5. The results are expressed as the difference of IC50 (in log10) between the Cs derivatives and Cs. All Cs-derivatives used in this study were selected for having a conserved peptide ring conformation compared with CsA (as determined in NMR or X-ray diffraction).

C4 2.2 = assay: ELISA inhibition by singly modified Cs-derivatives, McAb C4 2.2; conditions: group V; McAb binds selectively to Thr^2 -Cs-BSA coating
Description: as §1, §2

H4 1.3 = assay: ELISA inhibition by singly modified Cs-derivatives, McAb H4 1.3; conditions: group II; D-Lys^8 -Cs-BSA coating
Description: as §1, §2

H6 1.5 = assay: ELISA inhibition by singly modified Cs-derivatives, McAb H6 1.5; conditions: group III; D-Lys^8 -Cs-BSA coating
Description: as §1, §2

G7 1.1 = assay: ELISA inhibition by singly modified Cs-derivatives, McAb G7 1.1; conditions: group I; McAb binds selectively to Thr^2 -Cs-BSA coating
Description: as §1, §2

Row | Structure (SMILES) | log10 difference in the concentrations of Cs-derivatives and unmodified Cs required to achieve 50% inhibition in ELISA, McAb B11 1.4 (B11 1.4) [log10] | log10 difference in the concentrations of Cs-derivatives and unmodified Cs required to achieve 50% inhibition in ELISA, McAb C4 2.2 (C4 2.2) [log10] | log10 difference in the concentrations of Cs-derivatives and unmodified Cs required to achieve 50% inhibition in ELISA, McAb H4 1.3 (H4 1.3) [log10] | log10 difference in the concentrations of Cs-derivatives and unmodified Cs required to achieve 50% inhibition in ELISA, McAb H6 1.5 (H6 1.5) [log10] | log10 difference in the concentrations of Cs-derivatives and unmodified Cs required to achieve 50% inhibition in ELISA, McAb G7 1.1 (G7 1.1) [log10]
1 | CC[C@@H]1NC(=O)[C@H]([C@H](O)[C@H](C)C/C=C/CO)N(C)C(=O)[C@H](C(C)C)N(C)C(=O)[C@H](CC(C)C)N(C)C(=O)[C@H](CC(C)C)N(C)C(=O)[C@@H](C)NC(=O)[C@H](C)NC(=O)[C@H](CC(C)C)N(C)C(=O)[C@H](C(C)C)NC(=O)[C@H](CC(C)C)N(C)C(=O)CN(C)C1=O [MeBint^1 8'-hydroxy] | < 0.0 | 0.0 | < 0.0 | < 0.0 | 0.0
2 | C/C=C/C[C@@H](C)[C@@H](O)[C@H]1C(=O)N[C@@H](CC)C(=O)N(C)CC(=O)N(C)[C@@H](C)C(=O)N[C@@H](C(C)C)C(=O)N(C)[C@@H](CC(C)C)C(=O)N[C@@H](C)C(=O)N[C@H](C)C(=O)N(C)[C@@H](CC(C)C)C(=O)N(C)[C@@H](CC(C)C)C(=O)N(C)[C@@H](C(C)C)C(=O)N1C [MeLeu^4 MeAla] | 0.3 | 0.1 | 1.8 | 1.2 | < 0.0
3 | C/C=C/C[C@@H](C)[C@@H](O)[C@H]1C(=O)N[C@@H](CC)C(=O)N(C)CC(=O)N(C)[C@@H](Cc2ccccc2)C(=O)N[C@@H](C(C)C)C(=O)N(C)[C@@H](CC(C)C)C(=O)N[C@@H](C)C(=O)N[C@H](C)C(=O)N(C)[C@@H](CC(C)C)C(=O)N(C)[C@@H](CC(C)C)C(=O)N(C)[C@@H](C(C)C)C(=O)N1C [MeLeu^4 MePhe] | 0.2 | 0.0 | 0.7 | 2.3 | < 0.0
4 | C/C=C/C[C@@H](C)[C@@H](O)[C@H]1C(=O)N[C@@H](CC)C(=O)N(C)CC(=O)N(C)[C@@H](CC(C)C)C(=O)N[C@@H](C(C)C)C(=O)N(C)[C@@H](C)C(=O)N[C@@H](C)C(=O)N[C@H](C)C(=O)N(C)[C@@H](CC(C)C)C(=O)N(C)[C@@H](CC(C)C)C(=O)N(C)[C@@H](C(C)C)C(=O)N1C [MeLeu^6 McAla] | 0.0 | 1.2 | 0.9 | 2.7 | 0.7
5 | C/C=C/C[C@@H](C)[C@@H](O)[C@H]1C(=O)N[C@@H](CC)C(=O)N(C)CC(=O)N(C)[C@@H](CC(C)C)C(=O)N[C@@H](C(C)C)C(=O)N(C)[C@@H](Cc2ccccc2)C(=O)N[C@@H](C)C(=O)N[C@H](C)C(=O)N(C)[C@@H](CC(C)C)C(=O)N(C)[C@@H](CC(C)C)C(=O)N(C)[C@@H](C(C)C)C(=O)N1C [MeLeu^6 MePhe] | 0.0 | 1.3 | 1.2 | 1.7 | 0.1
6 | C/C=C/C[C@@H](C)[C@@H](O)[C@H]1C(=O)N[C@@H](CC)C(=O)N(C)CC(=O)N(C)[C@@H](CC(C)C)C(=O)N[C@@H](C(C)C)C(=O)N(C)[C@@H](CC(C)C)C(=O)N[C@@H](C)C(=O)N[C@H](C)C(=O)N(C)[C@@H](C)C(=O)N(C)[C@@H](CC(C)C)C(=O)N(C)[C@@H](C(C)C)C(=O)N1C [MeLeu^9 MeAla] | 1.7 | 1.9 | < 0.0 | 0.0 | 1.4
7 | C/C=C/C[C@@H](C)[C@@H](O)[C@H]1C(=O)N[C@@H](CC)C(=O)N(C)CC(=O)N(C)[C@@H](CC(C)C)C(=O)N[C@@H](C(C)C)C(=O)N(C)[C@@H](CC(C)C)C(=O)N[C@@H](C)C(=O)N[C@H](C)C(=O)N(C)[C@@H](Cc2ccccc2)C(=O)N(C)[C@@H](CC(C)C)C(=O)N(C)[C@@H](C(C)C)C(=O)N1C [MeLeu^9 MePhe] | 1.2 | 1.8 | 0.0 | 0.1 | 0.3
8 | C/C=C/C[C@@H](C)[C@@H](O)[C@H]1C(=O)N[C@@H](CC)C(=O)N(C)CC(=O)N(C)[C@@H](CC(C)C)C(=O)N[C@@H](C(C)C)C(=O)N(C)[C@@H](CC(C)C)C(=O)N[C@@H](C)C(=O)N[C@H](C)C(=O)N(C)[C@@H](CC(C)C)C(=O)N(C)[C@@H](CC(C)C)C(=O)N(C)[C@@H]([C@@H](C)CC)C(=O)N1C [MeVal^11 MeIle] | 0.2 | 0.3 | 0.0 | 0.0 | 0.4
9 | C/C=C/C[C@@H](C)[C@@H](O)[C@H]1C(=O)N[C@@H](CC)C(=O)N(C)CC(=O)N(C)[C@@H](CC(C)C)C(=O)N[C@@H](C(C)C)C(=O)N(C)[C@@H](CC(C)C)C(=O)N[C@@H](C)C(=O)N[C@H](C)C(=O)N(C)[C@@H](CC(C)C)C(=O)N(C)[C@@H](CC(C)C)C(=O)N(C)[C@@H]([C@H](C)CC)C(=O)N1C [MeVal^11 aMeIle] | < 0.0 | 0.0 | 0.3 | 0.3 | 0.0
